Experiments:
[1] = system: mice; settings: intravenous injection in mice; ref Mizugaki and Ito, 2005; cited from earlier work
[2] = system: pain hypersensitivity in spinal nerve-ligated neuropathic rats; assay: Anti-hypersensitivity, normalized (anti-allodynia and anti-hyperalgesia ED50 averaged); assay type: in vivo, rat; settings: intrathecal; average of allodynia and hyperalgesia ED50
Procedure: (§1) The percentage of maximal possible effect (% MPE) was calculated using the following formula: (postdrug threshold in ipsilateral hindlimb – baseline threshold in ipsilateral hindlimb)/(baseline threshold in contralateral hindlimb – baseline threshold in ipsilateral hindlimb) × 100 ([Bowersox et al., 1996]). A % MPE value near 100 indicates normal mechanical thresholds (i.e., near contralateral thresholds), and a value near 0 indicates allodynia. For the dose-response curve analysis, the parameters (i.e., minimum effect; Emax, median effective concentration or dose, or median toxic or lethal dose [EC50, ED50, TD50, or LD50], and Hill coefficient [n]) were calculated from the individual dose-response curves using the Prism program (version 5.01, GraphPad Software, San Diego, CA, USA). To determine the parameters of the dose-response curves, the values of response (Y) were fitted by non-linear least-squares curves to the relation Y = a + bx, where x = [D]^n/(ED50^n + [D]^n), [C]^n/(EC50^n + [C]^n), [D]^n/(TD50^n + [D]^n) or [D]^n/(LD50^n + [D]^n), to give each value of ED50, EC50, TD50, or LD50 and b (Emax) yielding a minimum residual sum of squares of deviations from the theoretical curve ([Wang and Pang, 1993]).
Table 1 summarizes the ED50 values in mole base for aconitine, benzolyaconine, and aconine to block pain hypersensitivity. Because anti-allodynia and anti-hyperalgesia were closely correlated, their ED50 values were averaged to obtain a normalized ED50 for anti-hypersensitivity. The ED50 ratios for aconitine and benzolyaconine to block mechanical allodynia and heat hyperalgesia were 1:92 and 1:110, with a normalized ED50 ratio of 1:102.

[3] = system: spinal nerve–ligated neuropathic rats; assay: Acute spinal neurotoxicity (flaccid paralysis and death) after intrathecal injection; assay type: in vivo, rat
Procedure: An 18-cm polyethylene catheter (PE-10: 0.28-mm inner diameter and 0.61-mm outer diameter, Clay Adams, Parsippany, NJ, USA) with a volume of 13 μL was inserted into the lumbar level of the spinal cord as described elsewhere under inhalational isoflurane anesthesia (4% for induction and 1% for maintenance) run by an anesthesia meter (Ugo Basile Gas Anesthesia System, Comerio, Italy). Two days after recovery from anesthesia, the placement of the catheter in the spinal cord was verified by administration of 4% lidocaine (10 μL, followed by 15 μL of saline for flushing). Rats that had no motor impairment after placement of the intrathecal catheter were considered for the study, and rats that developed immediate bilateral paralysis of the hindlimbs after intrathecal administration of lidocaine were selected for the study. For intrathecal administration of the control and test articles, 10 μL of each drug was injected with a 50-μL microinjector (Shanghai Anting Micro-Injector Factory, Shanghai, China) and was flushed with 15 μL of normal saline solution.
Survival and abnormal motor-blockade behaviors, including asthma, abdominal breathing, locomotion difficulty, and paralysis, were continuously monitored for 24 h after the treatment, with special attention given during the first 4 h. Paralysis was defined as an inability to negotiate a 60-degree inclined plane ([Durant and Yaksh, 1986]). Death was defined as respiratory arrest over a period of 5 min. The paralysis and mortality rates and their latencies were quantitatively recorded and tabulated.
as §1

[4] = system: prodynorphin gene expression in primary cultures of spinal microglia; assay: Prodynorphin gene expression in cultured primary spinal microglia (real-time quantitative PCR); assay type: cell-based, rat
Procedure: Glial cells were isolated from the 1-day-old neonatal rats. The isolated spinal cords were minced and then incubated with trypsin. Dissociated cells were suspended in 75-cm^2 tissue culture flasks (1 × 10^7 cells/flask) precoated with poly-L-lysine and maintained in a 5% CO2 incubator at 37°C. After culture for 10 days, the microglial cells were prepared as floating cell suspensions by shaking the flask at 260 rpm for 2 h. The aliquots were transferred to plates, and the unattached cells were removed by washing with serum-free Dulbecco’s modified Eagle’s medium.
RNA extraction, reverse transcription, and real-time quantitative PCR were performed as previously described ([Chen et al., 2012]). The spinal lumbar enlargements of rats were collected and mechanically homogenized with an electronic microhomogenizer at 4,000 rpm for 10 s in TRIzol on ice. Total RNA from the spinal lumbar enlargements were isolated using TRIzol reagent (Invitrogen, Grand Island, NY, USA). A 1-μg sample of total RNA was reverse-transcribed with a ReverTra Ace qPCR RT-Kit (Toyobo, Japan). Real-time quantitative PCR was carried out with the Mastercycler ep realplex (Eppendorf, Germany) using the RealmasterMix (SYBR Green I) (Toyobo). The fold change was calculated with the 2^-ΔΔCt method after normalization to the gene of gapdh. […]
The percentage of maximal possible effect (% MPE) was calculated using the following formula: (postdrug threshold in ipsilateral hindlimb – baseline threshold in ipsilateral hindlimb)/(baseline threshold in contralateral hindlimb – baseline threshold in ipsilateral hindlimb) × 100 ([Bowersox et al., 1996]). […] For the dose-response curve analysis, the parameters (i.e., minimum effect; Emax, median effective concentration or dose, or median toxic or lethal dose [EC50, ED50, TD50, or LD50], and Hill coefficient [n]) were calculated from the individual dose-response curves using the Prism program (version 5.01, GraphPad Software, San Diego, CA, USA). […]
Primary cultures of microglial cells taken from the spinal cords of the neonatal rats were treated with a variety of concentrations of aconitine (1 × 10^-8, 3 × 10^-8, 1 × 10^-7, 3 × 10^-7, and 1 × 10^-6 M), benzolyaconine (3 × 10^-7, 1 × 10^-6, 3 × 10^-6, 1 × 10^-5, 3 × 10^-5, and 1 × 10^-4 M) and aconine (1 × 10^-4, 3 × 10^-4, 1 × 10^-3, 3 × 10^-3, and 1 × 10^-2 M) for 2 h. As the bulleyaconitine A-increased dynorphin A level measured by the enzyme-linked immunosorbent assay was in parallel with the prodynorphin gene expression in spinal microglia from neonatal and adult rats ([Li et al., 2016]), the expression of the cellular prodynorphin gene encoding dynorphin A was only measured in this study using real-time quantitative PCR. […]

[5] = intrathecal bolus, observed 24 h

**Q.** For CCN1C[C@]2(COC)[C@H](O)C[C@H](OC)[C@@]34[C@@H]5C[C@@]6(O)[C@H](OC(=O)c7ccccc7)[C@@H]5[C@@](OC(C)=O)([C@@H]([C@H](OC)[C@H]23)[C@@H]14)[C@@H](O)[C@@H]6OC [Aconitine, aconitine], which LD50 [1] is on record?
**A.** 0.12 mg/kg

**Q.** What about the “Normalized ED50 for anti-hypersensitivity” value [2] of the same molecule?
**A.** 35 pmol

**Q.** What about the “Duration of toxic motor-blockade behavior” value ([3]; intrathecal) of the same molecule?
**A.** 5 to 10 min

**Q.** And the “Latency of toxic motor-blockade behavior” value ([3]; intrathecal)?
**A.** 2 to 3 min

**Q.** And the Death latency ([3]; intrathecal 0.25 μg)?
**A.** 13.6 min

**Q.** And the Paralysis latency ([3]; intrathecal 0.25 μg)?
**A.** 2.3 ± 0.7 min

**Q.** What about the Death latency ([3]; intrathecal 0.32 μg) of the same molecule?
**A.** 12.4 ± 2.3 min

**Q.** What about the Paralysis latency ([3]; intrathecal 0.32 μg) of the same molecule?
**A.** 2.5 ± 0.8 min

**Q.** What about the Death latency ([3]; intrathecal 0.4 μg) of the same molecule?
**A.** 10.0 ± 3.3 min

**Q.** What about the Paralysis latency ([3]; intrathecal 0.4 μg) of the same molecule?
**A.** 2.6 ± 1.2 min

**Q.** What about the “LD50 (mortality)” value [3, 5] of the same molecule?
**A.** 0.6 nmol

**Q.** What about the “TD50 (for flaccid paralysis)” value [3, 5] of the same molecule?
**A.** 0.4 nmol

**Q.** What about the “Normalized TD50” value ([3]; intrathecal, average of TD50 (paralysis) and LD50) of the same molecule?
**A.** 0.5 nmol

**Q.** What about the “Potency on microglial dynorphin A expression relative to bulleyaconitine A (more potent by)” value ([4]; EC50 32 nM versus 45 nM) of the same molecule?
**A.** approximately 0.5 fold

**Q.** And the EC50 ([4]; Rattus norvegicus, primary spinal microglia of neonatal rats, 2 h incubation, read-out: EC50, stimulation of prodynorphin gene (dynorphin A) expression)?
**A.** 0.032 µM

— PMC5051147, “Ester Hydrolysis Differentially Reduces Aconitine-Induced Anti-hypersensitivity and Acute Neurotoxicity: Involvement of Spinal Microglial Dynorphin Expression and Implications for Aconitum Processing” (Frontiers in Pharmacology, 2016)
